Test results reported in patent US12662672B2, “Method of promoting survival and/or function of a motor neuron and related agents, uses and methods” (Agency for Science, Technology and Research, priority 2019, dated 2026).

Experiments:
[1] = tested on: healthy MNs; test: Metabolic flux analysis, MitoStress assay (OCR) in healthy MNs; type: cell-based, human
Procedure: (§1) After dissociating with Accutase, cells were blocked with solution containing phosphate-buffered saline, 0.5% bovine serum albumin (BSA) and 2 mM EDTA. The cells were then incubated with CD171-APC antibody (Miltenyi Biotec) and PSA-NCAM-APC antibody (Miltenyi Biotec) for 10 mins at 4° C. After washing, the cells were then incubated with anti-APC microbeads for 15 minutes at 4° C. The cells were then washed twice and filtered prior to loading into the separation column (LS column) that was attached to a magnetic stand (all from Miltenyi Biotec). After three rounds of washing, the column was removed from the magnetic stand and labelled cells were eluted in culture media for replating.
(§2) Motor neuron cultures at day 27 were dissociated with Accutase and seeded at 2 million cells per well in a 6-well plate. At day 28, non-targeting siRNA or siRNAs were individually complexed with Lipofectamine RNAiMAX following manufacturer's instructions and added to the motor neuron cultures. For each well, 10 pmol of siRNAs and 8 μl of Lipofectamine RNAiMAX were used. Cells were either harvested for RNA and protein analyses, fixed for immunostaining or metabolic flux analysis were performed 3 days after siRNA transfection.

[2] = tested on: ALS MNs; test: Metabolic flux analysis, Glycolysis stress assay (ECAR) in ALS MNs; type: cell-based, human; details: for glycolysis: C12 5 μM, siRNA 3 days
Procedure: as §2

[3] = tested on: ALS MNs; test: Motor neuron survival assay (ISL1+ MNs) in ALS iPSC-derived MNs; type: cell-based, human; details: for MN survival (ISL1+ MNs): ALS MNs, treatment from day 28, NAM 0.5 mM, C12 5 μM, Riluzole 5 μM, Edaravone 100 μM, siRNA 10 pmol
Excerpt: Cultures were then fixed with 4% PFA on Day 25, 28, 31 and 35 respectively for quantification of motor neuron survival. Fixed cultures were stained with the motor neuron marker ISL1, and cellular nuclei were counterstained with DAPI before imaging on the high content microscope Phenix (Perkin Elmer). Percentage of ISL1+ cells was normalized to total nuclei number. To calculate normalized survival index, the percentage of ISL1+/DAPI at day 25 was arbitrary set as 1.0, and motor neuron survival on later days were in turn normalized to day 25 cultures.
as §2

[4] = tested on: ALS MNs; test: Neuronal morphology (soma size, primary neurites) in ALS MNs; type: cell-based, human; details: for neuronal morphologies: day 31, NAM 0.5 mM, C12 5 μM, Riluzole 5 μM, Edaravone 100 μM, siRNA; for number of primary neurites / soma size: day 31
Procedure: Cells were fixed in 4% paraformaldehyde for 15 minutes, permeabilized in 0.1% Triton X-100 for 15 minutes and blocked in buffer containing 5% FBS and 1% BSA for an hour at room temperature. Primary antibodies (Table S4) were diluted in blocking buffer and incubated overnight at 4° C. Cells were washed thrice in PBS. The respective secondary antibodies were diluted 1:1500 in blocking buffer and incubated at room temperature, in the dark, for 90 minutes. DAPI was used at 0.1 μg/ml to visualize cellular nuclei.
Images were acquired using the high content microscope Phenix (Perkin Elmer) using the 20× air objective. Image analyses including cell counts and intensity measurements were performed using Columbus (Perkin Elmer).
For primary neurites analysis, neuronal projections from the soma size was determined based on SMI-32 staining. For soma size analysis, cellular nuclei were identified by DAPI, and the cytoplasmic area surrounding the nucleus was determined based on SMI-32 staining. Soma size area was measured by image analysis software (ImageJ, NIH) based on the cytoplasmic area surrounding the nucleus, excluding neuronal projections.

[5] = tested on: healthy MNs; test: Mitochondrial NAD+ quantification in healthy iPSC-derived MNs; type: cell-based, human; details: NAM supplementation
Procedure: (§3) Mitochondria from motor neuron cultures were isolated using the MACS technology. Motor neurons culture were first Accutase and wash twice with PBS before resuspending in ice cold Lysis buffer. The cells were then homogenized with a dounce homogenizer (Pestle B) 15 strokes. The homogenate was diluted with 1× separation buffer based on manufacturer's instructions. Anti-TOM22 were added to magnetically label the mitochondria before incubating at 4° C. for 1 hour. The cells were then washed twice and filtered prior to loading into the separation column (LS column) that was attached to a magnetic stand (all from Miltenyi Biotec). After three rounds of washing, the column was removed from the magnetic stand and labelled mitochondria were eluted in storage buffer for downstream applications.
(§4) Mitochondria from motor neuron cultures (10 million cells) were isolated using the MACS technology (as described above). Mitochondrial NAD+ was prepared quantified using NAD/NADH-Glo™ Assay (Promega) following manufacturer's instructions. Briefly, isolated mitochondria were first diluted in PBS, bicarbonate base buffer and 1% DTAB in a ratio of 2:1:1. […] After heating, 0.5M of Trizma base was added to the suspension and levels of mitochondrial NAD^+ were recorded, normalized to NAD^+ standard curve and quantified based on manufacturer's instructions (Promega). […]

[6] = tested on: ALS MNs; test: Mitochondrial NAD+ quantification in ALS iPSC-derived MNs; type: cell-based, human; details: 0.5 mM NAM
Procedure: as §3, §4

[7] = tested on: ALS MNs; test: Metabolic flux analysis, MitoStress assay (OCR) in ALS MNs; type: cell-based, human; details: for ATP production / basal respiration / spare respiratory capacity: NAM 0.5 mM, siRNA 3 days; for ATP production: C12 5 μM; for mitochondrial respiration / metabolic profile: day 31, C12 5 μM, Riluzole 5 μM, Edaravone 100 μM
Procedure: as §1, §2

[8] = tested on: spliced XBP1 (sXBP1); test: qPCR of ER stress transcript spliced XBP1 in ALS MN cultures; type: cell-based, human; details: ALS MNs, day 31; C12 5 μM, Riluzole 5 μM, Edaravone 100 μM
Procedure: (§5) Cells were harvested in Trizol reagent for RNA extraction following manufacturer's instructions. Purified RNA was converted to cDNA using the High-Capacity cDNA Reverse Transcription kit, and quantitative PCR (qPCR) was performed on the QuantStudio 5 Real-Time PCR System using PowerUp™ SYBR™ Green Master Mix (all from Applied Biosystems). Gene expressions were normalized to HPRT and ACTB expression unless otherwise stated.

[9] = tested on: CHOP; test: qPCR of ER stress transcript CHOP in ALS MN cultures; type: cell-based, human; details: ALS MNs, day 31; C12 5 μM, Riluzole 5 μM, Edaravone 100 μM
Procedure: as §5

[10] = tested on: mitochondrial Complex I; test: Complex I activity in ALS MNs; type: cell-based, human; details: day 31, C12
Procedure: Cell lysates were prepared using Complex I Enzyme Activity Microplate Assay Kit (Abcam), following the manufacturer's instructions. Activity of Complex I was recorded, normalized and quantified based on manufacturer's instructions. Biological triplicates were performed with a minimum of 3 technical replicates each.

[11] = tested on: mitochondrial acetyl-lysine proteins; test: Western blot of acetyl-lysine proteins in purified mitochondrial extracts of ALS MNs; type: cell-based, human; details: panel of ALS MNs, 5 μM C12, day 31
Procedure: (§6) Protein lysates were resolved in 12% SDS-PAGE gels or 4-20% precast gels in Tris-Glycine-SDS buffer. Proteins were then transferred to a nitrocellulose membrane and blocked with 5% milk in TBST buffer. Primary antibodies were diluted in 5% milk and incubated with the membranes overnight at 4° C. Membranes were washed thrice in TBST buffer. The corresponding horseradish peroxidase secondary antibodies (Life Technologies) were then diluted 1:5000 in 5% milk and incubated at room temperature for 90 minutes. Blots were washed thrice before exposing to ECL for imaging.
as §3

[12] = target: T1, SIRT1 (Homo sapiens, UniProt Q96EB6); test: Cellular thermal shift assay (CETSA), SIRT1; details: 20 μM C12, 1 hour, intact HEK293T cells, 48-68° C.
T1 sequence (Q96EB6 1-747): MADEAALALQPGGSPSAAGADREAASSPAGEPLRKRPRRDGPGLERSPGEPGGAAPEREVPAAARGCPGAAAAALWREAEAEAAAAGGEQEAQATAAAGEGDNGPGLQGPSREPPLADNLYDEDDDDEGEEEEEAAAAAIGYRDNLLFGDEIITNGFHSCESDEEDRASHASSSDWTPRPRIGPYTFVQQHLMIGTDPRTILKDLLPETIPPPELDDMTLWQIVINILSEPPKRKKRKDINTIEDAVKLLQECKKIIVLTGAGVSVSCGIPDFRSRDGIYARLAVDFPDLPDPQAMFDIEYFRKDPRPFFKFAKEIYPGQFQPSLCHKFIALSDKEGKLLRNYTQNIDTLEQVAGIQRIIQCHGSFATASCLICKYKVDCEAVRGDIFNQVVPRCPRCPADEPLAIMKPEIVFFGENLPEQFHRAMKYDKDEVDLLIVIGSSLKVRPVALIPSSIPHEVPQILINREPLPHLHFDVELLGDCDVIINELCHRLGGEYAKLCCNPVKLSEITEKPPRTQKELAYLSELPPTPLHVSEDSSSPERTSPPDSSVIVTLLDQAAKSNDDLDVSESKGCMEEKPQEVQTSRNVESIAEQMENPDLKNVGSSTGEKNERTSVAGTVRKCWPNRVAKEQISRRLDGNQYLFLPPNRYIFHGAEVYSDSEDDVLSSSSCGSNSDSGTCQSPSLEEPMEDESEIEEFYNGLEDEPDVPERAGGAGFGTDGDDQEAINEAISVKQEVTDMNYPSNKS
Procedure: CETSA was performed as previously described (3) and HEK293T cells were used to carry out the experiment. […] After the incubation, the cells were harvested, washed, pellet down and resuspended in 1 mL of PBS. Equal amounts of cell suspensions were aliquoted into Eppendorf tubes. The cell suspensions were then heated (48-68° C.) and lysed using 2 cycles of freeze-thawing. The soluble fractions were isolated and analyzed by Western blot analysis as described above.

[13] = tested on: total MnSOD; test: Western blot of total MnSOD protein levels in C12-treated MNs; type: cell-based, human; details: BJ-SOD1^L144F MNs, increasing doses of C12, day 31
Procedure: as §6

[14] = tested on: SMA type I (1-38G) MNs; test: MitoStress assay in SMA type I MNs; type: cell-based, human; details: 5 μM C12
[15] = tested on: ALS patients; details: cited from earlier work
[16] = tested on: GCN5L1; test: GCN5L1 knockdown by siRNA in iPSC-derived MNs (qPCR); type: cell-based, human; details: day 31, vs non-targeting siRNA
Procedure: as §2, §5

| Compound | hyper-glycolytic metabolic profile / phenotype [2] | MN survival (ISL1+ MNs) [3] | neuronal morphologies [4] | ATP production ([7]; SIRT3 lentivirus day 28-31) | basal respiration ([7]; SIRT3 lentivirus day 28-31) | spare respiratory capacity ([7]; SIRT3 lentivirus day 28-31) | glycolysis [2] | expression of ER stress transcript sXBP1 [8] | expression of ER stress transcript CHOP [9] | number of primary neurites [4] | soma size [4] | mitochondrial respiration / metabolic profile [7] | efficacy in ALS patients [15] | other results |
| --- | --- | --- | --- | --- | --- | --- | --- | --- | --- | --- | --- | --- | --- | --- |
| NC(=O)c1cccnc1 [NAM, Nicotinamide] | corrected the hyper-glycolytic metabolic profile | promoted ALS MN survival | healthier neuronal morphologies | significantly improved | significantly improved | significantly improved | – | – | – | – | – | – | – | mitochondrial respiration (OCR parameters) [1]: no significant effects; mitochondrial NAD+ levels [5]: did not elevate; mitochondrial NAD+ levels [6]: significantly elevated |
| COc1ccc(-c2cc3ccc(O)cc3oc2=O)cc1 [C12, 7-hydroxy-3-(4′-methoxyphenyl) coumarin] | – | promoted ALS MN survival | improved neuronal morphologies | rescued ATP production back to healthy levels | – | – | reduced glycolysis | significantly reduced | significantly reduced | increased number of primary neurites | enlarged soma sizes | promoted mitochondrial respiration | – | mitochondrial Complex I activity [10]: increased mitochondrial Complex I activity; cytotoxicity ([3]; 10 μM C12, ALS MNs (BJ-SOD1^L144F)): cytotoxic; mitochondrial acetyl-lysine signals [11]: significantly reduced; thermal stability of SIRT1 [12]: but not another abundantly expressed sirtuin, SIRT1; total MnSOD protein levels [13]: remains unchanged; metabolic defect (basal respiration, ATP production) [14]: did not improve the metabolic defect |
| Nc1nc2ccc(OC(F)(F)F)cc2s1 [Riluzole] | – | – | – | – | – | – | – | significantly reduced | significantly reduced | – | – | – | efficacious amongst bulbar-onset ALS patients and not in subjects with limb-onset ALS | lifespan extension ([15]; on average): 3 months |
| GCN5L1 siRNA: siRNA against human GCN5L1, Dharmacon J-012580-09-0010 (AGAGGAGGCGAGAGGCUAU; listed as RNA, further chemistry not given here) | reduced hyper-glycolytic phenotype | promoted survival | healthier neuronal morphologies | rescued ATP production back to healthy levels | significant improvements | significant improvements | reduced | – | – | – | – | – | – | basal acidification [2]: reduced; glycolytic capacity [2]: reduces glycolytic capacity; GCN5L1 knockdown [16]: 60%; ATP production ([7]; SIRT3 lentivirus day 28-31, listed as siRNAs targeting GCN5L1): significant improvements |
| CC1=NN(c2ccccc2)C(=O)C1 [Edaravone] | – | promoted ALS MN survival | did not improve neuronal morphologies | – | – | – | – | significantly reduced | significantly reduced | no significant change | no significant change | did not show any significant changes | efficacy only in a small subset of ALS patients | – |
